Values quoted from earlier work as cited in patent US10195206B2, “Two-component pharmaceutical composition for the treatment of pain” (BRIDGE THERAPEUTICS, INC., priority 2005, dated 2019).

Assays:
[1] = in vivo
[2] = in vivo; remark: listed apart in the source

Row | Structure (SMILES) | half-life [1] | solubility in water | oral and/or gastrointestinal bioavailability [2]
1 | CN1C(C(=O)Nc2ccccn2)=C(O)c2ccccc2S1(=O)=O [Piroxicam, 4-hydroxyl-2-methyl-N-2-pyridinal-2H-1,2-benzothiazine-3-carboximide 1,1-dioxide] | approximately 50 hours | sparingly soluble | –
2 | CO[C@]12CCC3(C[C@@H]1[C@](C)(O)C(C)(C)C)[C@H]1Cc4ccc(O)c5c4[C@@]3(CCN1CC1CC1)[C@H]2O5.Cl [Buprenorphine, 17-(cyclopropylmethyl)-α-(1,1-dimethylethyl)-4,5-epoxy-18,19-dihydro-3-hydroxy-6-methoxy-α-methyl-6,14-ethenomorphian-7-methanol] | approximately 36 hours | limited solubility | poor
